These results are taken from publication PMC12073402, “A Selective MAP3K1 Inhibitor Facilitates Discovery of NPM1 as a Member of the Network” (Molecules, 2025).

Common to all, as to test: KiNativ kinome profiling in PANC-1 lysate
What all share (type): binding

The target in one assay is T1, NEK1 (Homo sapiens, UniProt Q96PY6).
T1 construct: endogenous in cells; host or cells: PANC-1 cell lysate
The method in brief:
(§1)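 PANC-1 lysates were incubated with 5 μM inhibitor or DMSO, then labeled with a desthiobiotin-ATP acyl-phosphate probe that biotinylates conserved kinase lysines. Tryptic peptides were streptavidin-enriched and quantified by LC-MS/MS, reported as % change in MS signal from duplicate treated and duplicate control samples.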

The subject of a further assay is AurA, AurB, AurC. The settings on record: 5 µM; ATP Loop; GKFGNVYLAR
The essentials: as §1

The target in another assay is T2, MAP3K2 (Homo sapiens, UniProt Q9Y2U5).
T2 construct: endogenous in cells; host or cells: PANC-1 cell lysate
The settings on record: Lys1. The essentials:
as §1

Another assay deals with Wnk1, Wnk2, Wnk4. The settings on record: 5 µM; ATP Loop; IGDLGLATLKR
The method in brief: as §1

The target of a further assay is T3, LATS1 (Homo sapiens, UniProt O95835).
T3 construct: we opted to conduct a kinome screen (KiNativ) in PANC-1 cell lysates; endogenous in cells; host or cells: PANC-1 cell lysate
T3 sequence (O95835 whole entry): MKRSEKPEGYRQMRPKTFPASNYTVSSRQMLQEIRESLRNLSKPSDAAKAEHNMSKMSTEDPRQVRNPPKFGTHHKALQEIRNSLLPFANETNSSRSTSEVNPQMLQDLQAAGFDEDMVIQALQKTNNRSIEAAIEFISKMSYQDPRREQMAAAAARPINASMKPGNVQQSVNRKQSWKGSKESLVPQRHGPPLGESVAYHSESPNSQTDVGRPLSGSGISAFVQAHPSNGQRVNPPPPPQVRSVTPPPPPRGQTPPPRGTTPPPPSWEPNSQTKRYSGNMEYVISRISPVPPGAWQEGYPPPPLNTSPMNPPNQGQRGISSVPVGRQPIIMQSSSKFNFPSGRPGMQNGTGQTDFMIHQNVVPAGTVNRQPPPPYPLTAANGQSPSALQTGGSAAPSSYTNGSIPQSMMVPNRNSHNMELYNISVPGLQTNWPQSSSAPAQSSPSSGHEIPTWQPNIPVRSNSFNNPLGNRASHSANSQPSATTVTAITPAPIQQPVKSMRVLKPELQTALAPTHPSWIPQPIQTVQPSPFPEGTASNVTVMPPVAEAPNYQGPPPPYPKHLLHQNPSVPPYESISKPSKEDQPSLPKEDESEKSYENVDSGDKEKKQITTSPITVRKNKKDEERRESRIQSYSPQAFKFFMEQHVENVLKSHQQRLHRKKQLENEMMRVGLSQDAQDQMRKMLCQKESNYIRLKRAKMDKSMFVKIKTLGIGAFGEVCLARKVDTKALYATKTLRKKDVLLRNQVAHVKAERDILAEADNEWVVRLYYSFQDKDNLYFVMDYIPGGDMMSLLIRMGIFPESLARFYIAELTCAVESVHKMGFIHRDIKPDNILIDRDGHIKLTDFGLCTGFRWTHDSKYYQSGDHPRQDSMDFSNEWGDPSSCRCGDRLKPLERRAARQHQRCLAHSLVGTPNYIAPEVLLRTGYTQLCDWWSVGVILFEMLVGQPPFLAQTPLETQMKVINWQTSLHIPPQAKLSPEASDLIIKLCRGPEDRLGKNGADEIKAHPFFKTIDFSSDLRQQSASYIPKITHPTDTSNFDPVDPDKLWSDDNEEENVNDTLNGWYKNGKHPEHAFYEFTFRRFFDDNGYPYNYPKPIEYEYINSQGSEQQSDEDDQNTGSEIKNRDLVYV
The method in brief:
as §1

In a further assay the target is T4, MAPKAPK3 (Homo sapiens, UniProt Q16644).
T4 construct: endogenous in cells; host or cells: PANC-1 cell lysate
T4 sequence (Q16644 whole entry): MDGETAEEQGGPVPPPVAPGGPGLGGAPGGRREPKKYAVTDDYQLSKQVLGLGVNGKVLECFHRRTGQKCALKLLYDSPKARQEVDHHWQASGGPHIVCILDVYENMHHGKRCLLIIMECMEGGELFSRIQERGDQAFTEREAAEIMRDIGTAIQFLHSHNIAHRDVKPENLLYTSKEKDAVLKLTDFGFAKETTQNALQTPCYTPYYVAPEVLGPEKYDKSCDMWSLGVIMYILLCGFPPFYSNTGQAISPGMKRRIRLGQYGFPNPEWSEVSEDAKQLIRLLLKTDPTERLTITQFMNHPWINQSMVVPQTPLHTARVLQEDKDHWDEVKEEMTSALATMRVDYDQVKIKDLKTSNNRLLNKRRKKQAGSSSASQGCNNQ
The method in brief:
as §1

The target of another assay is T5, MAP2K7 (Homo sapiens, UniProt O14733).
T5 construct: endogenous in cells; host or cells: PANC-1 cell lysate
T5 sequence (O14733 whole entry): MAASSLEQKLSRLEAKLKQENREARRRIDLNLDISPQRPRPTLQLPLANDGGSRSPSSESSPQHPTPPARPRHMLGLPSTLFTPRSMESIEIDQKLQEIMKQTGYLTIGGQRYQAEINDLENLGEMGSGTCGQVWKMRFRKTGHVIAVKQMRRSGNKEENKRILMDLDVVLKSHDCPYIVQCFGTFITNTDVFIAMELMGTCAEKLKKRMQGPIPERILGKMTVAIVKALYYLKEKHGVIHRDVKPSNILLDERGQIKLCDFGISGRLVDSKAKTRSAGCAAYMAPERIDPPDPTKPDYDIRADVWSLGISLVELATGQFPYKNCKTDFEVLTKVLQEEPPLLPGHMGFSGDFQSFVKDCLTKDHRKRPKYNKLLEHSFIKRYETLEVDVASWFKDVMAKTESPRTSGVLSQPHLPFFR
The settings on record: Lys2. The essentials:
as §1

A further assay has as its target T6, NEK9 (Homo sapiens, UniProt Q8TD19).
T6 construct: endogenous in cells; host or cells: PANC-1 cell lysate
T6 sequence (Q8TD19 1-979): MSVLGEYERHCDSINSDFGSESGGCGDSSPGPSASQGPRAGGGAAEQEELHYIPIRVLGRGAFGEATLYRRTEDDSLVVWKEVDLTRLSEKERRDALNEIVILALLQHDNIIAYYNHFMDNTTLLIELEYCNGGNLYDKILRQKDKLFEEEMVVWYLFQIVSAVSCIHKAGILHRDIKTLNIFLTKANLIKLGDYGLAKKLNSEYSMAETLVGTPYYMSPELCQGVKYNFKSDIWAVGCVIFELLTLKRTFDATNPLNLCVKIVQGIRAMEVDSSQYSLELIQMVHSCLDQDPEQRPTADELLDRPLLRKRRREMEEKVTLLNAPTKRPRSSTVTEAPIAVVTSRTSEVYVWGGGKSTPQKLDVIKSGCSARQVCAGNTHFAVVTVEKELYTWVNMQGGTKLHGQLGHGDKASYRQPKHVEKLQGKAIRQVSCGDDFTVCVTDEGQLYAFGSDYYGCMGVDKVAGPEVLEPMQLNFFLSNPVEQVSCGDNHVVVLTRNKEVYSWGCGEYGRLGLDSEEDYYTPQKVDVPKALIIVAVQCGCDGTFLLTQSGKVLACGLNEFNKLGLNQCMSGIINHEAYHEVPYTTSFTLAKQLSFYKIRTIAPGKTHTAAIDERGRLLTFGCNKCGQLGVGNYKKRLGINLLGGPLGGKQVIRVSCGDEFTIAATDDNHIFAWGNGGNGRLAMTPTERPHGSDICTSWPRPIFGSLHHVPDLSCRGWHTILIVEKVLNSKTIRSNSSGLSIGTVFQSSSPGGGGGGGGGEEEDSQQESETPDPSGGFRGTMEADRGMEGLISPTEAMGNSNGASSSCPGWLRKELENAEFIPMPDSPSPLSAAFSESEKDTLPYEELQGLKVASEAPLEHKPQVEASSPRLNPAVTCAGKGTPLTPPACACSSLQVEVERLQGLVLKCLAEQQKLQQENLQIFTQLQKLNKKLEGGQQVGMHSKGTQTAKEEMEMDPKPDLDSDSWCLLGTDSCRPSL
The method in brief: as §1

The next assay concerns the target T7, SRPK1 (Homo sapiens, UniProt Q96SB4).
T7 construct: endogenous in cells; host or cells: PANC-1 cell lysate
The settings on record: Lys2. The method in brief:
as §1

For a further assay, the target named is T8, TGFbR2 (Homo sapiens, UniProt P37173).
T8 construct: endogenous in cells; host or cells: PANC-1 cell lysate
The settings on record: Lys2. The essentials:
as §1

Another assay concerns the target T9, YES (Homo sapiens, UniProt P07947).
T9 construct: endogenous in cells; host or cells: PANC-1 cell lysate
The settings on record: Lys1. The method in brief:
as §1

The next assay concerns the target T10, DGKA (Homo sapiens, UniProt P23743).
T10 construct: endogenous in cells; host or cells: PANC-1 lysate
The settings on record: ATP. The method in brief: as §1

The target in the next assay is T11, HER3/ErbB3 (Homo sapiens, UniProt P21860).
T11 construct: we opted to conduct a kinome screen (KiNativ) in PANC-1 cell lysates; endogenous in cells; host or cells: PANC-1 cell lysate
T11 sequence (P21860 20-1342): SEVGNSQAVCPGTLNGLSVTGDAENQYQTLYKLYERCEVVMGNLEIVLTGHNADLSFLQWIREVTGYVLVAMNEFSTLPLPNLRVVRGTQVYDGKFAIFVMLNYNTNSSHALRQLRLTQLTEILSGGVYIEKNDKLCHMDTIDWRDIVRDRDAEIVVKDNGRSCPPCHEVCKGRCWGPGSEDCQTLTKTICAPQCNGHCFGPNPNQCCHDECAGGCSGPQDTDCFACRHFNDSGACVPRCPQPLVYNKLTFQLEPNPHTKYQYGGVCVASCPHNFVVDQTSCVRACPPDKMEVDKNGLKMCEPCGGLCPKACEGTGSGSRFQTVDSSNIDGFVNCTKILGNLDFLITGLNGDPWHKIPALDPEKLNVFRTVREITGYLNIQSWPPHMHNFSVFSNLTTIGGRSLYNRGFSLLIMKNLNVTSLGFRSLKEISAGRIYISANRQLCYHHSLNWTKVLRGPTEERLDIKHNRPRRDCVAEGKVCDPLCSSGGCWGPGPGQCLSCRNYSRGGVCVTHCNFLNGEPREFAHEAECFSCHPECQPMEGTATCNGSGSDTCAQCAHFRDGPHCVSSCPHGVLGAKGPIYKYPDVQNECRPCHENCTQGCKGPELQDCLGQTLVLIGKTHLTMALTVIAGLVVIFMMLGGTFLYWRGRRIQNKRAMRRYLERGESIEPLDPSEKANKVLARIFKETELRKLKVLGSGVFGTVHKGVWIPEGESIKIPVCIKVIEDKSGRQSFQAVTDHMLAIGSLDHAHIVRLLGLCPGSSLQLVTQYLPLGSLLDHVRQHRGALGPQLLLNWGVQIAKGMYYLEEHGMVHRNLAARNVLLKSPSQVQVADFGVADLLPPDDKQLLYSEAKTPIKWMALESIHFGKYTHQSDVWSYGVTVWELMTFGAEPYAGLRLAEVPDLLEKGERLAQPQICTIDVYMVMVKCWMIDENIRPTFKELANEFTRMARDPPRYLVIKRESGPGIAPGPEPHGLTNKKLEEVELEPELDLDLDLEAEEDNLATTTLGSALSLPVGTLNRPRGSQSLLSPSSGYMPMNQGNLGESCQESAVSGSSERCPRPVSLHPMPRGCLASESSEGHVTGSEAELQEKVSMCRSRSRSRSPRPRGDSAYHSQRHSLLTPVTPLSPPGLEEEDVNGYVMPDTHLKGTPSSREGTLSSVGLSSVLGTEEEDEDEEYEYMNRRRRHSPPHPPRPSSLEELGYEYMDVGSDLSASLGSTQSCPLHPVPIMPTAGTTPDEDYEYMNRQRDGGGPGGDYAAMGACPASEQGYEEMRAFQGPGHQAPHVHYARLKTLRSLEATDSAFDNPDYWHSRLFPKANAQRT
The method in brief:
as §1

The target in another assay is T12, CHK1 (Homo sapiens, UniProt O14757).
T12 construct: endogenous in cells; host or cells: PANC-1 cell lysate
T12 sequence (O14757 whole entry): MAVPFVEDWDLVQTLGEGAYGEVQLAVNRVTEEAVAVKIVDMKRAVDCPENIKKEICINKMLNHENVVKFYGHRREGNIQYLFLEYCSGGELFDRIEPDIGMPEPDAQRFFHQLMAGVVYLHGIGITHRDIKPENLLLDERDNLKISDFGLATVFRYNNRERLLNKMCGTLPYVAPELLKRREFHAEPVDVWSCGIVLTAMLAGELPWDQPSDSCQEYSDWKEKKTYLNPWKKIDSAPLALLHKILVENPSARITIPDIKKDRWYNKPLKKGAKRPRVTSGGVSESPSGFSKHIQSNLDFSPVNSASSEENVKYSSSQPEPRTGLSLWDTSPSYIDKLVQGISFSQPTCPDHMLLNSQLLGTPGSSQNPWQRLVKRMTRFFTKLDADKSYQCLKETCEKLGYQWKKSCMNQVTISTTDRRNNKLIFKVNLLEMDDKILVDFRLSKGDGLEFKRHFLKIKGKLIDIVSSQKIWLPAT
The settings on record: Lys2. The method in brief:
as §1

Each structure is given as a SMILES string.

T1 sequence (Q96PY6 whole entry): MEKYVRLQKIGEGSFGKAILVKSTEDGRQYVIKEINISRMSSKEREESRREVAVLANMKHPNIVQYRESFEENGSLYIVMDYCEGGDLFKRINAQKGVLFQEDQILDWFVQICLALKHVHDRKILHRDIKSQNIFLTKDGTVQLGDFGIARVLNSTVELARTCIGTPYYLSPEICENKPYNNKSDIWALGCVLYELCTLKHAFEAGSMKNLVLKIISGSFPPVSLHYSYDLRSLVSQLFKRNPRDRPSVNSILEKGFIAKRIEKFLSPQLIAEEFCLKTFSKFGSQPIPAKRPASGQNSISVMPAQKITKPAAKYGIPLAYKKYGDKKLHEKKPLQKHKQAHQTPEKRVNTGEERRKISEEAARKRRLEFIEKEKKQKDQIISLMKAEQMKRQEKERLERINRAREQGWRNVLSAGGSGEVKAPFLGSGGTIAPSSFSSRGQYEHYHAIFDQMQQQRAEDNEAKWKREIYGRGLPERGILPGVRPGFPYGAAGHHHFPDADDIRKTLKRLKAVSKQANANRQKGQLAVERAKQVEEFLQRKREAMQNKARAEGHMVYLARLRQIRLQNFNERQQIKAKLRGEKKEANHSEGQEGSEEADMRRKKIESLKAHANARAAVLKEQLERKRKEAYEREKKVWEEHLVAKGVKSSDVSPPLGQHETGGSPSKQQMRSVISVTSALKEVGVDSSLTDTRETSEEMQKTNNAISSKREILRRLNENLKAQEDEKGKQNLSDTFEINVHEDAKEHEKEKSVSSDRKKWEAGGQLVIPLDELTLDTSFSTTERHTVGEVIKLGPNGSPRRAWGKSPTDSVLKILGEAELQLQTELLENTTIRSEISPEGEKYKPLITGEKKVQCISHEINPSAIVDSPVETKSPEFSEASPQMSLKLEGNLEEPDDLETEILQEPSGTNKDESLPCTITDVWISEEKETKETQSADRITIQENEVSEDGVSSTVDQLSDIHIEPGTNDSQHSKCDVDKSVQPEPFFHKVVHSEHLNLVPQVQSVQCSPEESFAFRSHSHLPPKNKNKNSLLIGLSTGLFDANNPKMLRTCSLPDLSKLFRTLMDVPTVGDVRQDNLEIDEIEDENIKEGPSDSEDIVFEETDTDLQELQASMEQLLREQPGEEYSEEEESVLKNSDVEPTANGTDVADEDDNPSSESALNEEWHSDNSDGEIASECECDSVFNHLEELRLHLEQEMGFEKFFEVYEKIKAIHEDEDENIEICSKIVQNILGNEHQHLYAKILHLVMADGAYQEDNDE

Take `Cn1cc(-c2cnc3ccc(NC(=O)Nc4ccc(F)c(C(F)(F)F)c4)cc3n2)cn1` [51-106, 1-(4-Fluoro-3-(trifluoromethyl)phenyl)-3-(3-(1-methyl-1H-pyrazol-4-yl)quinoxalin-6-yl)urea]: the “% Inhibition” value on NEK1 (5 µM, Lys1, QYVIKEINISR) is “NB (NB = No Binding (≤ 0))”; in the assay on AurA, AurB, AurC, “NB (NB = No Binding (≤ 0))”; in the assay on Wnk1, Wnk2, Wnk4, 4.6%; at LATS1 (5 µM, Lys2, DIKPDNILIDR) it was “NB (NB = No Binding (≤ 0))”; on MAPKAPK3 (5 µM, Lys1, CALKLLYDSPK), “NB (NB = No Binding (≤ 0))”. The inhibition at 5 µM on NEK1 (Lys2, […]) is at most 0%; at MAP3K2, at most 0%; on LATS1 (Lys1, […]) it was at most 0%; against MAPKAPK3 (ATP Loop, […]) it was at most 0%; against MAP2K7 it was at most 0%; at NEK9 (ATP Loop, LGDYGLAKK), at most 0%. Moreover, the inhibition at 5 µM at NEK9 (Lys1, RTEDDSLVVWKEVDLTR) was 0.6%; against NEK9 (Lys2, DIKTLNIFLTK), 13.8%; against SRPK1, 4.4%; against TGFbR2, 8.9%; on YES it was 16%; against DGKA, at most 0%. In addition, the inhibition at 5 µM is 2% at HER3/ErbB3 (ATP Loop, SPSQVQVADFGVADLLPPDDKQLLYSEAKTPIK); at most 0% against HER3/ErbB3 (Lys1, GVWIPEGESIKIPVCIKVIEDK); at most 0% against CHK1.

By % Inhibition is commonly meant the relative decrease from the control value, in per cent. The low end stands for a weak effect, the high end for a strong effect. As a reminder, the inhibition is the percentage by which the read-out fell short of the control. Higher therefore signals a response far below the control.
